Reference: ChEMBL document CHEMBL1125160, “Dihydropyrimidine calcium channel blockers: 2-heterosubstituted 4-aryl-1,4-dihydro-6-methyl-5-pyrimidinecarboxylic acid esters as potent mimics of dihydropyridines” (J Med Chem, 1990)

Organism: Oryctolagus cuniculus
Assay: Vasorelaxant potency in isolated potassium (K(+)-depolarized rabbit thoracic aorta.
Type: functional
An IC50 of 16 nM was found for `CCOC(=O)C1=C(C)NC(SC)=NC1c1cccc(Cl)c1Cl` (stereo not given) in this work.
An IC50 of 9 nM was found for `CCC(C)OC(=O)C1=C(C)NC(SC)=NC1c1cccc([N+](=O)[O-])c1` (stereo not given) in this work.
An IC50 of 4 nM was found for `CCOC(=O)C1=C(C)NC(SCC)=C(C(=O)OCC)C1c1cccc([N+](=O)[O-])c1` (stereo not given) in this work.
An IC50 of 300 nM was found for `C=CCSC1=NC(c2cccc([N+](=O)[O-])c2)C(C(=O)OCC)=C(C)N1` (stereo not given) in this work.
An IC50 of 36 nM was found for `CCOC(=O)C1=C(C)NC(SC)=NC1c1ccccc1C(F)(F)F` (stereo not given) in this work.
An IC50 of 710 nM was found for `CCOC(=O)C1=C(C)N=C(OC)NC1c1cccc([N+](=O)[O-])c1` (stereo not given) in this work.
An IC50 of 6100 nM was found for `CCOC(=O)C1=C(C)NC(N(C)C)=NC1c1cccc([N+](=O)[O-])c1` (stereo not given) in this work.
An IC50 of 6 nM was found for `CSC1=NC(c2cccc(Cl)c2Cl)C(C(=O)OC(C)C)=C(C)N1` (stereo not given) in this work.
An IC50 of 1900 nM was found for `CSC1=NC(c2ccccc2[N+](=O)[O-])C(C(=O)OCCN(C)Cc2ccccc2)=C(C)N1` (stereo not given) in this work.
An IC50 of 7 nM was found for `CSC1=NC(c2cccc([N+](=O)[O-])c2)C(C(=O)OC(C)C)=C(C)N1` (stereo not given) in this work.
An IC50 of 280 nM was found for `COC(=O)C1=C(C)N=C(SC)NC1c1cccc([N+](=O)[O-])c1` (stereo not given) in this work.
An IC50 of over 100000 nM was found for `CSC1=NC(c2ccccc2C(F)(F)F)C(C(=O)OCCN(C)Cc2ccccc2)=C(C)N1` (stereo not given) in this work.
An IC50 of 300 nM was found for `CCOC(=O)C1=C(C)NC(SC)=NC1c1ccccc1[N+](=O)[O-]` (stereo not given) in this work.
An IC50 of 190 nM was found for `CCOC(=O)C1=C(C)NC(SCc2ccccc2)=NC1c1cccc([N+](=O)[O-])c1` (stereo not given) in this work.
An IC50 of 26 nM was found for `CCOC(=O)C1=C(C)NC(OCC)=C(C(=O)OCC)C1c1cccc([N+](=O)[O-])c1` (stereo not given) in this work.
An IC50 of 170 nM was found for `CCOC(=O)C1=C(C)NC(SCCN(C)Cc2ccccc2)=NC1c1cccc([N+](=O)[O-])c1` (stereo not given) in this work.
An IC50 of 30 nM was found for `CSC1=NC(c2cccc([N+](=O)[O-])c2)C(C(=O)OCCN(C)Cc2ccccc2)=C(C)N1` (stereo not given) in this work.
An IC50 of 130 nM was found for `CCOC(=O)C1=C(C)NC(SC)=NC1c1cccc([N+](=O)[O-])c1` (stereo not given) in this work.
An IC50 of 1200 nM was found for `CC1=C(C(=O)OC(C)C)C(c2cccc([N+](=O)[O-])c2)N=C(SCCN(C)C)N1` (stereo not given) in this work.
An IC50 of 180 nM was found for `CCCCCSC1=NC(c2cccc([N+](=O)[O-])c2)C(C(=O)OCC)=C(C)N1` (stereo not given) in this work.
